Test results published in patent US20230227453A1 (priority 2020, published 2023).

Tests used:
[1] = target: T1, 5-HT2C edited (accession number AAF35842.1) (Homo sapiens, UniProt P28335, I156V/I160V/N158S); experiment: cell-based
Target sequence in this assay (P28335 33-458 I156V/N158S/I160V limits assumed): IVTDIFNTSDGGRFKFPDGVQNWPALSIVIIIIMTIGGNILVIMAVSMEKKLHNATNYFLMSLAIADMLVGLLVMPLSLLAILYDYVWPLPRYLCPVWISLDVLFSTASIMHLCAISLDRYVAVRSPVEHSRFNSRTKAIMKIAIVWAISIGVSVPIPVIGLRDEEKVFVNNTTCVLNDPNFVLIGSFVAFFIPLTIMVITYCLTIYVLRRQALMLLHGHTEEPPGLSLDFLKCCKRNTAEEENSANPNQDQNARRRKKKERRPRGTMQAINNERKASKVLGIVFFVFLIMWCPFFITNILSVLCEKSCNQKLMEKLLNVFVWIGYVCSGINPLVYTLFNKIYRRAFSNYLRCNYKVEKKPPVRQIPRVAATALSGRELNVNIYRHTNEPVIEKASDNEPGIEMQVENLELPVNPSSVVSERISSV

[2] = target: T1, 5-HT2C edited (accession number AAF35842.1); experiment: biochemical; assay type: binding
Target sequence in this assay (P28335 whole entry I156V/N158S/I160V, looked up): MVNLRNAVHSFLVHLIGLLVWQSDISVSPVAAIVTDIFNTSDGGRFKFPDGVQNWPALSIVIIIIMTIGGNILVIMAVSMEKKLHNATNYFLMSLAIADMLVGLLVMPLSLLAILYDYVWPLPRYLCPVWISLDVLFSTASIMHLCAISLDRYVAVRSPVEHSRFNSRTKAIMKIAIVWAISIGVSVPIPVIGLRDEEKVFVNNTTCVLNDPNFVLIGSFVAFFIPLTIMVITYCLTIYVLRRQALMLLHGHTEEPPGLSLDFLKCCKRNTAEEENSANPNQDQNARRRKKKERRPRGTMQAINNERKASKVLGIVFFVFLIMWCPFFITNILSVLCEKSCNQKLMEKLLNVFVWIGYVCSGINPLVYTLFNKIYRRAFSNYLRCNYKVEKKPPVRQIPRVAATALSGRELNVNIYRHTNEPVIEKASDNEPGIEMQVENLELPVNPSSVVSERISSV

SMILES | EC50 [1] | IC50 [2]
Brc1ccc2c3c([nH]c2n1)CCNCC3 [Example 16, 2-bromo-5,6,7,8,9,10-hexahydropyrido[3′,2′:4,5]pyrrolo[2,3-d]azepine] | < 10 nM | 10 to 100 nM
c1cnc2[nH]c3c(c2c1)CCNCC3 [Example 17, 5,6,7,8,9,10-hexahydropyrido[3′,2′:4,5] pyrrolo[2,3-d] azepine] | < 10 nM | 10 to 100 nM
Clc1cnc2[nH]c3c(c2c1)CCN(C1COC1)CC3 [Example 27, 3-chloro-7-(oxetan-3-yl)-5,6,7,8,9,10-hexahydropyrido[3′,2′:4,5]pyrrolo[2,3-d]azepine] | 101 to 1000 nM | 101 to 1000 nM
CN1CCc2c(n(C)c3ncccc23)CC1 [Example 21, 7,10-dimethyl-5,6,7,8,9,10-hexahydropyrido[3′,2′:4,5]pyrrolo[2,3-d]azepine] | 10 to 100 nM | 10 to 100 nM
COc1ccc2c3c([nH]c2n1)CCN(C1COC1)CC3 [Example 4, 2-methoxy-7-(oxetan-3-yl)-5,6,7,8,9,10 hexahydropyrido[3′,2′:4,5]pyrrolo[2,3-d]azepine] | > 10000 nM | > 10000 nM
Cn1c2c(c3cccnc31)CCNCC2 [Example 18, 10-methyl-5,6,7,8,9,10-hexahydropyrido[3′,2′:4,5]pyrrolo[2,3-d]azepine] | < 10 nM | 10 to 100 nM
Cc1ccc2c3c(n(C)c2n1)CCNCC3 [Example 10, 2,10-dimethyl-5,6,7,8,9,10-hexahydropyrido[3′,2′:4,5]pyrrolo[2,3-d]azepine] | 10 to 100 nM | 101 to 1000 nM
Cn1c2c(c3ccc(Br)nc31)CCNCC2 [Example 25, 2-bromo-10-methyl-5,6,7,8,9,10-hexahydropyrido[3′,2′:4,5]pyrrolo[2,3-d]azepine] | < 10 nM | 10 to 100 nM
COc1ccc2c3c(n(C)c2n1)CCN(C1COC1)CC3 [Example 6, 2-methoxy-10-methyl-7-(oxetan-3-yl)-5,6,7,8,9,10-hexahydropyrido[3′,2′:4,5]pyrrolo[2,3-d]azepine] | 101 to 1000 nM | 1000 to 10000 nM
COc1ccc2c3c(n(C)c2n1)CCN(C)CC3 [Example 3, 2-methoxy-7,10-dimethyl-5,6,7,8,9,10-hexahydropyrido[3′,2′:4,5]pyrrolo[2,3-d]azepine] | 101 to 1000 nM | 101 to 1000 nM
Cc1ccc2c3c([nH]c2n1)CCNCC3 [Example 8, 2-methyl-5,6,7,8,9,10-hexahydropyrido[3′,2′:4,5]pyrrolo[2,3-d]azepine] | 10 to 100 nM | 101 to 1000 nM
COc1ccc2c3c([nH]c2n1)CCNCC3 [Example 2, 2-methoxy-5,6,7,8,9,10-hexahydropyrido[3′,2′:4,5]pyrrolo[2,3-d]azepine] | 10 to 100 nM | 101 to 1000 nM
Cc1ccc2c3c(n(C)c2n1)CCN(C1COC1)CC3 [Example 11, 2,10-dimethyl-7-(oxetan-3-yl)-5,6,7,8,9,10-hexahydropyrido[3′,2′:4,5]pyrrolo[2,3-d]azepine] | > 10000 nM | 1000 to 10000 nM
CN1CCc2[nH]c3ncccc3c2CC1 [Example 20, 7-methyl-5,6,7,8,9,10-hexahydropyrido[3′,2′:4,5]pyrrolo[2,3-d]azepine] | 10 to 100 nM | 10 to 100 nM
COc1ccc2c3c([nH]c2n1)CCN(C)CC3 [Example 1, 2-methoxy-7-methyl-5,6,7,8,9,10-hexahydropyrido[3′,2′:4,5]pyrrolo[2,3-d]azepine] | 101 to 1000 nM | 1000 to 10000 nM
Cc1ccc2c3c([nH]c2n1)CCN(C)CC3 [Example 7, 2,7-dimethyl-5,6,7,8,9,10-hexahydropyrido[3′,2′:4,5]pyrrolo[2,3-d]azepine] | 101 to 1000 nM | 101 to 1000 nM
Cn1c2c(c3cccnc31)CCN(C1COC1)CC2 [Example 23, 10-methyl-7-(oxetan-3-yl)-5,6,7,8,9,10-hexahydropyrido[3′,2′:4,5]pyrrolo[2,3-d]azepine] | 1000 to 10000 nM | 1000 to 10000 nM
Cn1c2c(c3cc(Cl)cnc31)CCNCC2 [Example 28, 3-chloro-10-methyl-5,6,7,8,9,10-hexahydropyrido[3′,2′:4,5]pyrrolo[2,3-d]azepine] | 10 to 100 nM | 10 to 100 nM
COc1cc2c3c([nH]c2cn1)CCN(C)CC3 [Example 14, 3-methoxy-7-methyl-5,6,7,8,9,10-hexahydropyrido[4′,3′:4,5]pyrrolo[2,3-d]azepine] | > 10000 nM | > 10000 nM
Cc1ccc2c3c([nH]c2n1)CCN(C1COC1)CC3 [Example 9, 2-methyl-7-(oxetan-3-yl)-5,6,7,8,9,10-hexahydropyrido[3′,2′:4,5]pyrrolo[2,3-d]azepine] | > 10000 nM | > 10000 nM
Clc1cnc2[nH]c3c(c2c1)CCNCC3 [Example 13, 3-chloro-5,6,7,8,9,10-hexahydropyrido[3′,2′:4,5]pyrrolo[2,3-d] azepine] | < 10 nM | 10 to 100 nM
COc1ccc2[nH]c3c(c2n1)CCN(C)CC3 [Example 15, 2-methoxy-8-methyl-5,6,7,8,9,10-hexahydropyrido[2′,3′:4,5]pyrrolo[2,3-d]azepine] | 10 to 100 nM | 10 to 100 nM
CN1CCc2[nH]c3ncc(Cl)cc3c2CC1 [Example 26, 3-chloro-7-methyl-5,6,7,8,9,10-hexahydropyrido[3′,2′:4,5]pyrrolo[2,3-d]azepine] | 10 to 100 nM | 10 to 100 nM
CN1CCc2[nH]c3nc(Br)ccc3c2CC1 [Example 19, 2-bromo-7-methyl-5,6,7,8,9,10-hexahydropyrido[3′,2′:4,5]pyrrolo[2,3-d]azepine] | 10 to 100 nM | 101 to 1000 nM
Cc1ccc2c3c(n(C)c2n1)CCN(C)CC3 [Example 12, 2,7,10-trimethyl-5,6,7,8,9,10-hexahydropyrido[3′,2′:4,5]pyrrolo[2,3-d]azepine] | 101 to 1000 nM | 101 to 1000 nM
CN1CCc2c(n(C)c3ncc(Cl)cc23)CC1 [Example 30, 3-chloro-7,10-dimethyl-5,6,7,8,9,10-hexahydropyrido[3′,2′:4,5]pyrrolo[2,3-d]azepine] | 10 to 100 nM | 10 to 100 nM
COc1ccc2c3c(n(C)c2n1)CCNCC3 [Example 5, 2-methoxy-10-methyl-5,6,7,8,9,10-hexahydropyrido[3′,2′:4,5]pyrrolo[2,3-d]azepine] | 10 to 100 nM | 10 to 100 nM
Cn1c2c(c3cc(Cl)cnc31)CCN(C1COC1)CC2 [Example 29, 3-chloro-10-methyl-7-(oxetan-3-yl)-5,6,7,8,9,10-hexahydropyrido[3′,2′:4,5]pyrrolo[2,3-d]azepine] | 1000 to 10000 nM | 1000 to 10000 nM
Brc1ccc2c3c([nH]c2n1)CCN(C1COC1)CC3 [Example 24, 2-bromo-7-(oxetan-3-yl)-5,6,7,8,9,10-hexahydropyrido[3′,2′:4,5]pyrrolo[2,3-d]azepine] | 101 to 1000 nM | 101 to 1000 nM
c1cnc2[nH]c3c(c2c1)CCN(C1COC1)CC3 [Example 22, 7-(oxetan-3-yl)-5,6,7,8,9,10-hexahydropyrido[3′,2′:4,5]pyrrolo[2,3-d]azepine] | 1000 to 10000 nM | > 10000 nM
